This is an account of results in patent publication US20230201179A1, “AGENT FOR TREATING CONTRAST-INDUCED ACUTE KIDNEY INJURY” (APTABIO THERAPEUTICS INC., priority 2020, published 2023).

One experiment relates to reactive oxygen species. In words: Inhibitory effect on the formation of reactive oxygen species.
In experiment [1] the test system is contrast media-induced acute kidney injury. The experiment is described as follows: Efficacy evaluation in animal model with contrast media-induced acute kidney injury in mice. The class given is in vivo, C57BL/6 mice. The protocol:
As the experimental animals, 6-week-old male C57BL/6 mice were purchased from LionBio. All mice were maintained under standard conditions. After breeding for about 2 weeks, at 8 weeks of age, Compound 1 (3-phenyl-4-n-propyl-1-(pyridin-2-yl)-1H-pyrazol-5-ol hydrochloride) was orally administered at a dose of 60 mg/kg daily for 5 days before administration of contrast media. In order to induce acute kidney injury, after a fast of 16 hours, the anti-inflammatory analgesic indomethacin (10 mg/kg) and the NO blocker N-nitro-L-arginine (L-NAME, 10 mg/kg) were intraperitoneally administered 15 minutes before administration of contrast media, and contrast media (Iohexol, 4000 mg iodine/kg) was intraperitoneally administered 15 minutes later. After 24 hours of supplying food and water, the animal test substances were classified into three groups: vehicle administered group (Control) and contrast media administered group (Iohexol), and contrast media and Compound 1 simultaneously administered group (Iohexol+Compound 1). After completion of the test, the animals were anesthetized, kidney tissue was enucleated for each individual, and blood was taken for examination. The tissues were fixed in 10% buffered neutral formalin solution. The fixed tissues were sliced to a certain thickness and paraffin-embedded through a general tissue processing process to produce a tissue section of 4 to 5 μm, and then hematoxylin & eosin staining (H&E stain), which is a general staining method, was performed to observe histopathologically the extent of kidney injury in the region of the renal cortex and renal medulla, and F4/80 staining, Tunel staining, DHE staining and nitrotyrosine staining were performed to observe the effects of inflammation and oxidative stress in the kidney injury tissue. Blood was taken and centrifuged at 3000 rpm, 4° C. for 10 minutes, and the upper layer of serum was taken and the level of blood urea nitrogen (BUN) and creatinine was measured using an automatic blood biochemical analyzer (AU480, Beckman Coulter, USA) to confirm the indicator of kidney injury. Histologic evaluation of the degree of kidney injury was calculated as 0 point for no renal tubular injury, 1 point for mild injury, 2 points for intratubular vacuolar lesions less than 25-60%, and 3 points for intratubular vacuolar lesions of 60% or more, thereby formulating the average value of renal tubular injury under the microscope field of view.

Setting [2] is: 60 mg/kg orally once a day for 5 days before Iohexol, vs contrast media-treated group.

Molecules are shown by their SMILES.

As for `CCCCc1c(-c2ccccc2)nn(-c2ccccn2)c1O` [3-phenyl-4-butyl-1-(pyridin-2-yl)-1H-pyrazol-5-ol], the “inhibitory effect on the formation of reactive oxygen species” value with reactive oxygen species was “inhibitory effect”.
As to `CCc1c(-c2ccccc2)nn(-c2ccccn2)c1O` [3-phenyl-4-ethyl-1-(pyridin-2-yl)-1H-pyrazol-5-ol], in the experiment on reactive oxygen species, the “inhibitory effect on the formation of reactive oxygen species” value is reported as “inhibitory effect”.
Same read-out and setting: to `CCCc1c(-c2ccccc2)nn(-c2ccccn2)c1O` [3-phenyl-4-propyl-1-(pyridin-2-yl)-1H-pyrazol-5-ol] belongs “inhibitory effect”.
Regarding `CCCc1c(-c2ccccc2)nn(-c2ccccn2)c1O.Cl` [Compound 1, 3-phenyl-4-propyl-1-(pyridin-2-yl)-1H-pyrazol-5-ol hydrochloride], in experiment [1] (60 mg/kg orally once a day for 5 days before Iohexol 4000 mg iodine/kg i.p., vs contrast media-treated group), the “kidney injury of the renal medulla and the renal cortex (H&E histopathology, FIG. 1)” value is listed as “remarkably reduced”. Further, the “renal tubular injury score (FIG. 5)” value in experiment [1] (60 mg/kg orally once a day for 5 days before Iohexol, score 0-3, renal biopsy) is recorded as “remarkably reduced”. Further, in experiment [1] (setting [2]), the “activated oxygen (reactive oxygen species, DHE staining) in the kidney tissue (FIG. 8)” value was “remarkably reduced”; the “concentration of BUN (serum, FIG. 2)” value was “decreased”; the “concentration of KIM-1 in the urine (FIG. 4)” value is given as “decreased”; the “concentration of NGAL in the urine (FIG. 4)” value is given as “decreased”. In experiment [1] (setting [2]), the “concentration of creatinine (Serum Cr, FIG. 3)” value is “decreased”; the “concentration of microproteinuria (albumin) in the urine (FIG. 4)” value was “decreased”; the “infiltration of inflammatory cells (macrophages, F4/80-positive cells) within the kidney tissue (FIG. 7)” value is on record as “remarkably reduced”; the “inflammation (MCP-1 gene expression) in the kidney tissue (FIG. 6)” value was “remarkably reduced”. Also, in experiment [1] (setting [2]), the “nitrotyrosine in the kidney tissue (FIG. 9)” value is given as “remarkably reduced”.
